Numbers after ± are expanded uncertainties.
Key:
[1] = for mass density: 348.15 K, 101.33 kPa, Liquid, Vibrating tube method; for Normal melting temperature: Crystal, DTA
[2] = Boiling temperature at pressure P; conditions: Liquid, Ebulliometric method (Recirculating still)
[3] = Molar enthalpy of transition or fusion; conditions: Crystal; DSC

O=[N+]([O-])c1cccc(Cl)c1Cl [1,2-dichloro-3-nitrobenzene]
Conditions	Molar enthalpy of transition or fusion [kcal/mol]	Normal melting temperature [°C]	mass density [kg/m3]
[1]	–	61.8 ± 1.1	1533 ± 2
[3]	5.33 ± 0.335	–	–

[2]
Conditions	Boiling temperature at pressure P [°C]
3.26 kPa	148.61 ± 0.39
3.72 kPa	151.73 ± 0.37
4.07 kPa	153.89 ± 0.35
5.48 kPa	161.26 ± 0.29
6.14 kPa	164.16 ± 0.24
7.17 kPa	168.22 ± 0.21
8.84 kPa	174 ± 0.19
10.02 kPa	177.31 ± 0.16
11.41 kPa	180.98 ± 0.15
12.61 kPa	183.86 ± 0.14
13.71 kPa	186.30 ± 0.13
15.55 kPa	190.1 ± 0.12
16.52 kPa	191.88 ± 0.11
18.33 kPa	195.16 ± 0.11
20.52 kPa	198.69 ± 0.1
21.66 kPa	200.30 ± 0.09
22.76 kPa	201.89 ± 0.09
25.1 kPa	205.06 ± 0.09
27.58 kPa	208.17 ± 0.08
30.63 kPa	211.69 ± 0.08
35.11 kPa	216.38 ± 0.07
40.91 kPa	221.76 ± 0.07
46.97 kPa	226.77 ± 0.06
50.86 kPa	229.71 ± 0.06
54.85 kPa	232.54 ± 0.06
57.81 kPa	234.64 ± 0.06
61.11 kPa	236.77 ± 0.06
63.43 kPa	238.11 ± 0.05
65.25 kPa	239.22 ± 0.05
70.98 kPa	242.53 ± 0.05
76.92 kPa	245.8 ± 0.05
80.62 kPa	247.66 ± 0.05
85.76 kPa	250.19 ± 0.05
91.3 kPa	252.79 ± 0.05
96.08 kPa	254.94 ± 0.05
101.3 kPa	257.18 ± 0.05

O=[N+]([O-])c1ccc(Cl)c(Cl)c1 [3,4-dichloro-1-nitrobenzene]
Conditions	Molar enthalpy of transition or fusion [kcal/mol]	Normal melting temperature [°C]	mass density [kg/m3]
[1]	–	42.2 ± 1.1	1533 ± 2
[3]	4.24 ± 0.263	–	–

[2]
Conditions	Boiling temperature at pressure P [°C]
3.01 kPa	143.59 ± 0.39
4.22 kPa	151.87 ± 0.37
4.98 kPa	156.10 ± 0.3
5.82 kPa	160.09 ± 0.26
6.97 kPa	164.90 ± 0.24
7.4 kPa	166.54 ± 0.2
9.08 kPa	172.28 ± 0.19
9.77 kPa	174.29 ± 0.16
11.5 kPa	178.94 ± 0.16
12.15 kPa	180.66 ± 0.14
13.41 kPa	183.46 ± 0.13
15.01 kPa	186.98 ± 0.13
16.24 kPa	189.28 ± 0.12
17.48 kPa	191.66 ± 0.11
19.68 kPa	195.37 ± 0.1
21.06 kPa	197.53 ± 0.1
24.35 kPa	202.28 ± 0.09
25.56 kPa	203.78 ± 0.09
26.76 kPa	205.32 ± 0.08
31.46 kPa	210.79 ± 0.08
34.27 kPa	213.8 ± 0.08
36.87 kPa	216.33 ± 0.07
41.72 kPa	220.8 ± 0.07
45.99 kPa	224.32 ± 0.07
51.49 kPa	228.52 ± 0.06
55.34 kPa	231.23 ± 0.06
61.61 kPa	235.37 ± 0.06
65.28 kPa	237.58 ± 0.06
70.2 kPa	240.51 ± 0.06
74.34 kPa	242.70 ± 0.06
79.67 kPa	245.50 ± 0.06
83.95 kPa	247.64 ± 0.06
89.76 kPa	250.37 ± 0.06
94.77 kPa	252.61 ± 0.06
98.14 kPa	254.08 ± 0.06
101.3 kPa	255.44 ± 0.06

Source: the NIST ThermoML archive (doi:10.1016/j.fluid.2014.01.034)
